# Source: patent publication US8324284B2, “Migrastatin analogs and uses thereof” (Sloan-Kettering Institute for Cancer Research, priority 2003, dated 2012)
# Read-outs that look alike come from different tables or passages of the source.
# Tests used:
# [1] = rcm bond, toluene, 0.25 h
# [2] = tested on: 4T1 mouse breast tumor cells; test: Chamber cell migration assay with 4T1 tumor cells; assay type: cell-based; details: for IC50: Boyden chamber, 6-8 h, average of three experiments; for inhibitory activity on 4T1 tumor cell migration, in words: chamber assay
# Experimental: The biological evaluation of the compounds (in terms of their ability to inhibit cell migration) was accomplished in a Boyden chamber cell migration assay. In this assay, mouse breast tumor cells (4T1 cells) or endothelial cells (HUVECs) are seeded on the upper chamber of a transwell insert. Growth factor-containing serum is added to the lower chamber.
# Chamber Cell Migration Assay (Tables 4 and 6): Cell migrations were assayed with Boyden chambers [8.0 μm pore size, polyethylene terephthalate membrane, FALCON cell culture insert (Becton-Dickinson)]. 4T1 mouse breast tumor cells or HUVECs were trypsinized and counted. 300 μl of 5−10×10^4 cells in serum-free medium was added to the upper chamber and 500 μl of medium with 10% fetal bovine serum (FBS) was added to the lower chamber. […] Cells on the inside of the transwell inserts were removed with a cotton swab, and cells on the underside of the insert were fixed and stained. Photographs of three random regions were taken and the number of cells was counted to calculate the average number of cells that have transmigrated.
# [3] = tested on: HUVEC; test: Tube formation assay; assay type: cell-based, human; details: minimal concentration causing definite disturbance of tube network; 16-18 h; tested 200, 100, 50, 25, 10 μM
# Experimental: A protocol was designed based on the instructions from the provider (BD Bioscience, San Jose, Calif.). Briefly, wells of a 48 well culture dish were covert with 150 μL matrigel and the matrigel was gelatinized for 30 min at 37° C. A 80-90% confluent HUVEC (BD Bioscience, San Jose, Calif.) culture was trypsin treated, the detached cells were collected by centrifugation and resuspended in EGM-2 media (BD Bioscience, San Jose, Calif.). Cell concentration was adjusted to 100.000 cells/mL. 400 μL of the cell suspension were filled in the matrigel coated wells, and a solution of the inhibitor was added to the intended final concentration. The plates were incubated at 37° C. with 5% CO2 for 16-18 h. Media was removed, and the matrigel surface was washed twice with 500 μL PBS before cells were labeled with 250 μL […] Calcein AM (Pierce, Rockford, Ill.) in PBS for 30 min at 37° C. After two additional washing steps (500 μL PBS) cells were visualized under an inverted microscope. Fluorescence was excited at 488 nm and recorded at 538 nm. The minimum effect concentration was defined as the minimal inhibitor concentration that caused a definite disturbance of the complexity of the formed tube network.
# [4] = tested on: KYSE-520 cells; test: Wound healing (scratch) assay; assay type: cell-based; details: 28 to 30 h, tested 200, 100, 50, 25, 10 μM
# Experimental: The wound healing assay was performed based on the method described by Nakae et al. (Nakae et al., J. Antibiotics (2000), 53, 1130-1136). Briefly, adherent cells were grown in a suitable media to confluence (e.g. KYSE-520 cells in RPMI-1640 with 10% FBS). Cells were starved for 24 h in serum free media. A scratch (ca. 0.5 mm) was applied and the cell layer was washed twice with PBS after removal of the media. Fresh, serum free media with the test compound at the desired concentration was added and the cells were incubated for 28 to 30 h at 37° C., 5% CO2. The scratch size was compared to that observed for cells exposed to 100 μM Migrastatin. Test compounds associated with a scratch size equal to or larger than that observed for cells exposed to 100 μM Migrastatin were deemed to have cell migration inhibitory activity at least equal to Migrastatin.
# [5] = tested on: 4T1 tumor lung metastasis; test: 4T1 tumor lung metastasis in syngeneic mice; assay type: in vivo, mouse; details: for lung metastasis, colonies (6-thioguanine clonogenic assay): mean and standard deviation; for inhibition of lung metastasis: 10 mg/kg i.p. daily Day 7-25
# Experimental: Female BALB/c mice (6-8 week old) were purchased from the Jackson Laboratory (Bar Harbor, Me.). All mice were housed at the Weill Medical College of Cornell University Animal Facilities in accordance with the Principles of Animal Care (NIH publication no. 85-23, revised 1985). 4T1 tumor cells (1×10^5) were injected subcutaneously into the abdominal mammary gland area of mice in 0.1 ml of a single-cell suspension in phosphate buffered saline (PBS) on Day 0. The dosage of tumor implantation was empirically determined to give rise to tumor of ˜10 mm in diameter in untreated wild type mice in 21-23 days. On Day 7, when the tumors averaged in size ˜4-5 mm in diameter, migrastatin analogs or control PBS saline were given every day by intraperitoneal injection at 10 mg/kg or 20 mg/kg per mouse until Day 25. On Day 28, the mice were sacrificed. This regiment of migrastatin analogs was well tolerated with no signs of overt toxicity. Every group included five mice. Primary tumors were measured using electronic calipers on the day when the mice were sacrificed. Tumor size was the square root of the product of two perpendicular diameters. Numbers of metastatic 4T1 cells in lung were determined by the clonogenic assay.^63 In brief, lungs were removed from each mouse on Day 28, finely minced and digested in 5 ml of enzyme cocktail containing 1×PBS and 1 mg/ml collagenase type IV for 2 hours at 37° C. on a platform rocker. After incubation, samples were filtered through 70 uM nylon cell strainers and washed twice with PBS. Resulting cells were suspended and plated serially diluted in 10 cm tissue culture dishes in medium RPMI1640 containing 60 uM thioguanine for clonogenic growth. 6-Thioguanine-resistant tumor cells formed foci after 14 days, at which time they were fixed with methanol and stained with 0.03% methylene blue for counting.
# Treatment 4T1 tumor lung metastasis in syngeneic mice with migrastatin analogs (See, FIG. 4). 4T1 tumor cells (10^5) were injected s.c. in the abdominal mammary gland with 0.1 ml of a single-cell suspension. Macroketone or macrolactam at 10 mg/kg or 20 mg/kg was given i.p. on Day 7 when the tumor size was about 5 mm in diameter, and every day until Day 25. On Day 28, the mice were sacrificed. Each group comprised five mice. Lung metastasis was measured by the 6-thiogunine clonogenic assay. The mean and standard deviation are presented. In the control group (daily PBS injection), there were 61300±18900 colonies.
# [6] = Metabolic stability in mouse plasma; assay type: in vitro ADME; details: mouse plasma/PBS, 37° C.
# Experimental: Mouse Plasma Stability Studies (Table 5): HPLC conditions: The sample is injected and separated using an Inertsil ODS3 6u 3×150 mm column with a mobile phase of MeCN and water (50% for migrastatin) at a flow of 0.4 mL/min, monitored at 220 nm at 0.02 AUFS (the retention time for migrastatin is ca. 4 min, the identity of this peak was confirmed by mass spectral analysis). Incubation and sample preparation conditions: A solution (ca. 30 mM) of chemical compound (Table 5) in DMSO is prepared. 2 μL of the solution is added to a mixture containing 200 μL of mouse plasma and 800 μL of PBS. The resulting solution is put into a water bath at 37° C., and 100 μL of sample is withdrawn at 10, 20, 30, 45, and 60 min. The precipitate is removed by centrifugation and 20 μL of the supernatant is injected onto the HPLC.
compound,measurement,setting,value
CO[C@H]1C=CCC/C=C/C(=O)OC/C(C)=C\[C@@H](C)[C@@H]1O[Si](C)(C)C(C)(C)C,"ring closure, yield of all isomers","[1]; from C=CCC/C=C/C(=O)OC/C(C)=C\[C@@H](C)[C@H](O[Si](C)(C)C(C)(C)C)[C@H](C=C)OC, Grubbs-II catalyst, 0.664 mM, 110.0 °C",55%
CO[C@H]1C=CCC/C=C/C(=O)O[C@H]([C@H](C)C(=O)CCCC2CC(=O)NC(=O)C2)/C(C)=C\[C@@H](C)[C@@H]1O[Si](C)(C)C(C)(C)C,"ring closure, yield of all isomers","[1]; from C=CCC/C=C/C(=O)O[C@@H](/C(C)=C\[C@@H](C)[C@H](O[Si](C)(C)C(C)(C)C)[C@H](C=C)OC)[C@H](C)C(=O)CCCC1CC(=O)NC(=O)C1, Grubbs-II catalyst, 0.46 mM, 110.0 °C",69%
CO[C@H]1C=CCCCCC(=O)CC/C(C)=C\[C@@H](C)[C@@H]1O[Si](C)(C)C(C)(C)C,"ring closure, yield of all isomers","[1]; from C=CCCCCC(=O)CC/C(C)=C\[C@@H](C)[C@H](O[Si](C)(C)C(C)(C)C)[C@H](C=C)OC, Grubbs-II, 0.508 mM, 111.0 °C",81%
CO[C@H]1C=CCCCCC(=O)OC/C(C)=C\[C@@H](C)[C@@H]1O[Si](C)(C)C(C)(C)C,"ring closure, yield of all isomers","[1]; from C=CCCCCC(=O)OC/C(C)=C\[C@@H](C)[C@H](O[Si](C)(C)C(C)(C)C)[C@H](C=C)OC, Grubbs-II catalyst, 0.498 mM, 110.0 °C",76%
CO[C@H]1C=CCCCCC(=O)O[C@@H](C(C)C)/C(C)=C\[C@@H](C)[C@@H]1O,"ring closure, yield of all isomers","[1]; from C=CCCCCC(=O)O[C@H](/C(C)=C\[C@@H](C)[C@H](O[Si](C)(C)C(C)(C)C)[C@H](C=C)OC)C(C)C, Grubbs-II, 0.53 mM, 111.0 °C, 2 steps",65%
CO[C@H]1C=CCCCCC(=O)O[C@H]([C@H](C)C(=O)CCCC2CC(=O)NC(=O)C2)/C(C)=C\[C@@H](C)[C@@H]1O[Si](C)(C)C(C)(C)C,"ring closure, yield of all isomers","[1]; from C=CCCCCC(=O)O[C@@H](/C(C)=C\[C@@H](C)[C@H](O[Si](C)(C)C(C)(C)C)[C@H](C=C)OC)[C@H](C)C(=O)CCCC1CC(=O)NC(=O)C1, Grubbs-II catalyst, 0.48 mM, 110.0 °C",79%
"COC1C=CCCCCC(=NNC(=O)CCOCCOCCOCCOCCNC(=O)CCCCC2SCC3NC(=O)NC32)CCC(C)=CC(C)C1O (mixture of isomers) [biotinylated macrohydrazone (73), Biotinylated Macrohydrazone]",IC50,[2],0.331 µM
same,"inhibitory activity on 4T1 tumor cell migration, in words",[2],inhibitory potency is largely retained
"COC1C=CCCCCC(=O)OC(C(C)C(=O)CCCC2CC(=O)NC(=O)C2)C(C)=CC(C)C1O (stereo not shown) [2,3-dihydromigrastatin (41), 2,3-Dihydromigrastatin]",Minimum effect concentration,[3],50 µM
same,Minimum effect concentration,[4],25 µM
"COC1C=CCCCCC(=O)OC(C(C)C)C(C)=CC(C)C1O [(R)-isopropyl macrolactone (68), (R)-Isopropyl Macrolactone]",IC50,[2],146 µM
same,"inhibitory activity on 4T1 tumor cell migration, in words",[2],only very weak effects on tumor cell migration
"COC1C=CCCCCC(=O)OC(C(C)C)C(C)=CC(C)C1O [(S)-isopropyl macrolactone (65), (S)-Isopropyl Macrolactone]",IC50,[2],227 µM
same,"inhibitory activity on 4T1 tumor cell migration, in words",[2],only very weak effects on tumor cell migration
"COC1C=CCCCCC(=O)OC(C(C)C(=O)CCCC2CC(=O)N(C)C(=O)C2)C(C)=CC(C)C1O (stereo not shown) [N-methyl-2,3-dihydromigrastatin (42), N-Methyl-2,3-Dihydromigrastatin]",IC50,[2],7 µM
"CO[C@H]1/C=C/CCCCC(=O)OC/C(C)=C\[C@@H](C)[C@@H]1OC(C)=O [acetylated macrolactone (49), Acetylated Macrolactone]","inhibitory activity on 4T1 tumor cell migration, in words",[2],reduced by roughly an order of magnitude
"C[C@@H]1O[C@H]2C3=C(C(=O)[C@@H]4O[C@@H]4[C@H]3O)[C@@H]1[C@H]1[C@H](C)OC=C3[C@H](O)[C@H]4OC4C(=O)[C@@]312 (stereo partly shown) [epoxyquinol, epoxyquinol A, reference compound]",IC50,[2],0.026 µM
"CO[C@H]1/C=C/CCCCC(O)(C(F)(F)F)CC/C(C)=C\[C@@H](C)[C@@H]1O (stereo partly shown) [macrocyclic CF3-alcohol (71), Macrocyclic CF3-Alcohol]","inhibitory activity on 4T1 tumor cell migration, in words",[2],displays the same activity profile as macroketone 60
"COC1C=CCCCCC(=O)NCC(C)=CC(C)C1O (stereo not shown) [macrolactam (55), Macrolactam]","lung metastasis, colonies (6-thioguanine clonogenic assay)","[5]; 10 mg/kg i.p. daily Day 7-25, Day 28",5333±1778 colonies
same,inhibition of lung metastasis,[5]; listed as macrolactam,91%
same,inhibition of lung metastasis,[5]; listed as macrolactam 55,~91%
same,"lung metastasis, colonies (6-thioguanine clonogenic assay)","[5]; 20 mg/kg i.p. daily Day 7-25, Day 28",5675±6263 colonies
"COC1C=CCCC=CC(=O)OCC(C)=CC(C)C1O (stereo not shown) [migrastatin core (45), Migrastatin Core]","stability (t1/2, mouse plasma)",[6],20 min
same,"stability (t1/2, mouse plasma), in words","[6]; 60 min of incubation, stable = intensity of HPLC signal unchanged",hydrolyzed rapidly
same,Minimum effect concentration,[3],10 µM
"CO[C@H]1/C=C/CCCCC(=O)OC/C(C)=C\[C@@H](C)C1=O [oxidized macrolactone (50), Oxidized Macrolactone]","inhibitory activity on 4T1 tumor cell migration, in words",[2],reduced by roughly an order of magnitude
N-Methyl-migrastatin,Minimum effect concentration,[3],200 µM
same,Minimum effect concentration,[4],100 µM
